Data reported in patent publication US11077128B2, “Selective inhibitors of Alpha2-containing isoforms of Na,K-ATPase and use thereof for reduction of intraocular pressure” (Yeda Research and Development Co. Ltd., priority 2015, dated 2021).

Columns and labels:
[1] = target: human Na,K-ATPase α2β1FXYD1 (Homo sapiens, UniProt P50993); assay: biochemical; assay type: biochemical
[2] = tested on: human Na,K-ATPase α2β3FXYD1; assay: biochemical; assay type: biochemical
IOP in rabbits [3] = assay: Lowering of basal IOP in rabbits, topical; assay type: in vivo, New Zealand white rabbits
IOP in rabbits [4] = assay type: in vivo, New Zealand white rabbits; conditions: one drop topically prior to 4AP, IOP over 5 hours
[5] = target: human Na,K-ATPase α2β3FXYD1 (Homo sapiens (Human), UniProt P50993); assay: biochemical; assay type: biochemical; conditions: read-out: apparent vanadate affinity (Ki vanadate) α2β3

CC1CN(C)CCC(O[C@@H]2[C@H](C)O[C@@H](O[C@@H]3[C@H](C)O[C@@H](O[C@H]4CC[C@@]5(C)C(CCC6C5C[C@H](O)[C@]5(C)[C@@H](C7=CC(=O)OC7)CC[C@]65O)C4)C[C@@H]3O)C[C@@H]2O)O1 (stereo partly drawn) [DMe]
Selectivity Ki ratio α1β1/α2β1 [1]: 6.7 | Selectivity Ki ratio α1β1/α2β3 [2]: 9.5 | effect on lowering the basal IOP (IOP in rabbits [3]; one drop of 1 mM solution, other eye PBS): coincides with other observations

CC1CN(CC2CC2)CCC(O[C@@H]2C(C)O[C@@H](O[C@@H]3C(C)O[C@@H](O[C@H]4CC[C@@]5(C)C(CCC6C5CC(O)[C@]5(C)[C@@H](C7=CC(=O)OC7)CC[C@]65O)C4)C[C@@H]3O)C[C@@H]2O)O1 (stereo in doubt) [DMcP, 4-((3S,5R,8R,9S,10S,12R,13S,14S,17R)-3-(((2R,4S,5S,6R)-5-(((2S,4S,5S,6R)-5-((4-(cyclopropylmethyl)-2-methyl-1,4-oxazepan-7-yl)oxy)-4-hydroxy-6-methyltetrahydro-2H-pyran-2-yl)oxy)-4-hydroxy-6-methyltetrahydro-2H-pyran-2-yl)oxy)-12,14-dihydroxy-10,13-dimethylhexadecahydro-1H-cyclopenta[a]phenanthren-17-yl)furan-2(5H)-one]
Selectivity Ki ratio α1β1/α2β1 [1]: 5.2 | Selectivity Ki ratio α1β1/α2β3 [2]: 22 | concentration that prevents the rise of the 4AP-induced IOP (IOP in rabbits [4]): 0.01 mM

[O]=[V]([OH])([OH])[OH] [vanadate, reference compound]
Ki [5]: 19 µM

CC(=O)O[C@H]1C[C@H](O[C@H]2[C@@H](OC(C)=O)C[C@H](O[C@H]3CC[C@@]4(C)[C@H](CC[C@@H]5[C@@H]4C[C@@H](OC(C)=O)[C@]4(C)[C@@H](C6=CC(=O)OC6)CC[C@]54O)C3)O[C@@H]2C)O[C@H](C)[C@H]1OC1CCN(C2CCC2)CC(C)O1 (stereo partly drawn) [TrisAcDcB, (2R,3R,4S,6R)-6-(((3S,5R,8R,9S,10S,12R,13S,14S,17R)-12-acetoxy-14-hydroxy-10,13-dimethyl-17-(5-oxo-2,5-dihydrofuran-3-yl)hexadecahydro-1H-cyclopenta[a]phenanthren-3-yl)oxy)-3-(((2S,4S,5R,6R)-4-acetoxy-5-((4-cyclobutyl-2-methyl-1,4-oxazepan-7-yl)oxy)-6-methyltetrahydro-2H-pyran-2-yl)oxy)-2-methyltetrahydro-2H-pyran-4-yl acetate]
time to minimum IOP (IOP in rabbits [3]; 0.05-0.2 mM): 5 to 6 h | minimum IOP (IOP in rabbits [3]; dropped from 15-16 mmHg, 0.05-0.2 mM): 12 mmHg | effect on basal IOP in the first hours (lag) (IOP in rabbits [3]; one 30 μl drop, 0.05, 0.1, 0.2 mM): no effect was observed at the first four hours | time of return of IOP to the control level (IOP in rabbits [3]; prodrug, 0.05-0.2 mM): 12 h | maximal effect on IOP compared with parent DcB (IOP in rabbits [3]; rabbit, in vivo): essentially equal to that produced by the parent DcB

CC1CN(C2CCC2)CCC(O[C@@H]2C(C)O[C@@H](O[C@@H]3C(C)O[C@@H](O[C@H]4CC[C@@]5(C)C(CCC6C5CC(O)[C@]5(C)[C@@H](C7=CC(=O)OC7)CC[C@]65O)C4)C[C@@H]3O)C[C@@H]2O)O1 (stereo in doubt) [DcB, 4-((3S,5R,8R,9S,10S,12R,13S,14S,17R)-3-(((2R,4S,5S,6R)-5-(((2S,4S,5S,6R)-5-((4-cyclobutyl-2-methyl-1,4-oxazepan-7-yl)oxy)-4-hydroxy-6-methyltetrahydro-2H-pyran-2-yl)oxy)-4-hydroxy-6-methyltetrahydro-2H-pyran-2-yl)oxy)-12,14-dihydroxy-10,13-dimethylhexadecahydro-1H-cyclopenta[a]phenanthren-17-yl)furan-2(5H)-one]
Selectivity Ki ratio α1β1/α2β3 [2]: 33 | concentration that prevents the rise of the 4AP-induced IOP (IOP in rabbits [4]): 0.01 mM | reduction of basal IOP at higher concentration (IOP in rabbits [3]; 2 mM): reduces the IOP similarly to 1 mM DcB
